Among the data in patent publication US20200181104A1, “SSAO INHIBITORS AND USES THEREOF” (METACRINE, INC., priority 2018, published 2020) are IC50 values, retold here.

Structures can show the parent of a compound that is named as a salt.

This experiment concerns the target T1, Recombinant Human SSAO/VAP-1/AOC3 (Homo sapiens, UniProt Q16853).
T1 construct: purchased R&D systems 3957-AO
T1 sequence (Q16853 1-763): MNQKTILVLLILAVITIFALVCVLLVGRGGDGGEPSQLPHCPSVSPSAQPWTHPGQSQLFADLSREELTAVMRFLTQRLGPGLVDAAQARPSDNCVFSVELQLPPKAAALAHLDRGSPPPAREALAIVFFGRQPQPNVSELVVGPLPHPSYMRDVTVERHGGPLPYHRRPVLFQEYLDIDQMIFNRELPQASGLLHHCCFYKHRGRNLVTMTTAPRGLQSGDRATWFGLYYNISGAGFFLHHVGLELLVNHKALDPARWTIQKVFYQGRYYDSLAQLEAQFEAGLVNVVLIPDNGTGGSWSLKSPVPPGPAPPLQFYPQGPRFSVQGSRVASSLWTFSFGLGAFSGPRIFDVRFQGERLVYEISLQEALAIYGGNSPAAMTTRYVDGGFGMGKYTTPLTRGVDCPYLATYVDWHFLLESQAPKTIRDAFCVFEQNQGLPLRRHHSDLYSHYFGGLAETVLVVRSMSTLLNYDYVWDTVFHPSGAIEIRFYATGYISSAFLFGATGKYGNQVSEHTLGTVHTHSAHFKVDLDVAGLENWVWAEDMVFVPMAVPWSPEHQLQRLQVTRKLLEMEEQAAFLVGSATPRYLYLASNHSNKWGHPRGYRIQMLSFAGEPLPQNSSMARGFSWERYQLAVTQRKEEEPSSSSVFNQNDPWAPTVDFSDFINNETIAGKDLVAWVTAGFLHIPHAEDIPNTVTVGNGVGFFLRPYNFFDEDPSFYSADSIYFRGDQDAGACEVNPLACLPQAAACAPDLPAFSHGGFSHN
Put plainly: Human Semicarbazide-Sensitive Amine Oxidase (SSAO) Assay. Type of experiment: biochemical. The note with it: recombinant enzyme, 30 minutes preincubation at 37° C., benzylamine substrate, Amplex Ultra Red/HRP fluorescence. The protocol:
Compounds were dissolved in DMSO to provide a Concentration Response Curve (CRC; at 500 times the final concentration) over a range of 6-10 dilutions.
Recombinant Human SSAO/VAP-1/AOC3 (R&D systems; Catalog #3957-AO) was used to screen compound potency in vitro, according to previously described methods (J Pharmacol Exp Ther. 2013 November; 347(2):365-74). SSAO enzyme was suspended in 50 mM HEPES buffer to a working concentration of 2.5 μg/ml and 40 μL of this enzyme mixture was then added to each well of a F16 Black Maxisorp 96 well Plate (Nunc, Catalog #475515). Ten microliters of each test compound (at 5 times the final concentration) were added to each well, resulting in a final well volume of 50 μL of the enzyme and inhibitor mixture. The compounds were preincubated with the enzyme for 30 minutes at 37° C., prior to the addition of a 40 μL volume of Amplex Ultra Red (125 uM AUR; Molecular Probes, Catalog # A36006)/Horseradish peroxidase (2.5 U/ml HRP; Sigma-Aldrich Catalog # P8375) oxidase detection reagent containing cytochrome C ([…]; Sigma-Aldrich Catalog # C7752). Cytochrome C was included in the AUR/HRP detection mixture to reduce the background fluorescence that can occur via the spontaneous redox reaction between AUR and HRP. The SSAO enzyme reaction was then initiated by adding 10 μL of the SSAO substrate, benzylamine (Sigma-Aldrich Catalog # B5136), and SSAO activity was measured in kinetic mode over a 30-120 minute sampling period (excit. 544 nm; emit 590 nm; cut off 570 nm; medium gain) to obtain IC50 values for enzyme activity in each treatment well.
On to `CO[C@H]1C[C@H](CNC(=O)C23CCC(c4ccc(OC/C(=C/F)CN)cc4)(CC2)CC3)C1` [Compound 2.145, 4-(4-(((E)-2-(aminomethyl)-3-fluoroallyl)oxy)phenyl)-N-(((1r,3r)-3-methoxycyclobutyl)methyl) bicyclo[2.2.2]octane-1-carboxamide], for which the IC50 (as a rule, the concentration that inhibits the measured activity by half) was not above 10 nM. Regarding `NC/C(=C\F)COc1ccc(C23CCC(C(=O)NC4CCN(CC(F)(F)F)CC4)(CC2)CC3)cc1` [Compound 2.112, (E)-4-(4-((2-(aminomethyl)-3-fluoroallyl)oxy)phenyl)-N-(1-(2,2,2-trifluoroethyl)piperidin-4-yl)bicyclo[2.2.2]octane-1-carboxamide], the IC50 is not above 10 nM. Regarding `CCO[C@H]1C[C@@H](NC(=O)C23CCC(c4ccc(OC/C(=C/F)CN)cc4)(CC2)CC3)C1` [Compound 2.150, 4-(4-(((E)-2-(aminomethyl)-3-fluoroallyl)oxy)phenyl)-N-((1s,3s)-3-ethoxycyclobutyl)bicyclo[2.2.2] octane-1-carboxamide], the IC50 was not above 10 nM. With `Cc1cc(C23CCC(C(N)=O)(CC2)CC3)ccc1OC/C(=C/F)CN` [Compound 2.02, (E)-4-(4-((2-(aminomethyl)-3-fluoroallyl)oxy)-3-methylphenyl)bicyclo[2.2.2] octane-1-carboxamide] the figure was not above 10 nM. Regarding `CC(C)(C#N)CNC(=O)C12CCC(c3ccc(OC/C(=C/F)CN)cc3)(CC1)CC2` [Compound 2.103, (E)-4-(4-((2-(aminomethyl)-3-fluoroallyl)oxy)phenyl)-N-(2-cyano-2-methylpropyl)bicyclo[2.2.2] octane-1-carboxamide], the IC50 was not above 10 nM. Consider `NC/C(=C\F)COc1ccc(C23CCC(C(=O)N4CCC(OCCO)CC4)(CC2)CC3)cc1` [Compound 2.85, (E)-(4-(4-((2-(aminomethyl)-3-fluoroallyl)oxy)phenyl)bicyclo [2.2.2]octan-1-yl)(4-(2-hydroxyethoxy)piperidin-1-yl)methanone], for which the IC50 is not above 10 nM. Turning to `Cc1cnc(CCNC(=O)C23CCC(c4ccc(OC/C(=C/F)CN)cc4)(CC2)CC3)o1` [Compound 2.45, (E)-4-(4-((2-(aminomethyl)-3-fluoroallyl)oxy)phenyl)-N-(2-(5-methyloxazol-2-yl)ethyl)bicyclo[2.2.2]octane-1-carboxamide], the IC50 is not above 10 nM. With `NC/C(=C\F)COc1ccc(C23CCC(C(=O)N4CCC(O)CC4)(CC2)CC3)cc1` [Compound 2.14, (E)-(4-(4-((2-(aminomethyl)-3-fluoroallyl)oxy)phenyl)bicyclo[2.2.2]octan-1-yl) (4-hydroxypiperidin-1-yl)methanone], the IC50 is not above 10 nM. `NC/C(=C\F)COc1ccc(C23CCC(C(=O)NC4CCN(c5ccccn5)CC4)(CC2)CC3)cc1` [Compound 2.117, (E)-4-(4-((2-(aminomethyl)-3-fluoroallyl)oxy)phenyl)-N-(1-(pyridin-2-yl)piperidin-4-yl)bicyclo[2.2.2]octane-1-carboxamide]: the IC50 is not above 10 nM.

As for `NC/C(=C\F)COc1ccc(C23CCC(c4nnc(C5CC5)o4)(CC2)CC3)cc1` [Compound 11.01, (E)-2-((4-(4-(5-cyclopropyl-1,3,4-oxadiazol-2-yl)bicyclo[2.2.2]octan-1-yl)phenoxy)methyl)-3-fluoroprop-2-en-1-amine], the IC50 is not above 10 nM. Turning to `COCC1CN(C(=O)C23CCC(c4ccc(OC/C(=C/F)CN)cc4)(CC2)CC3)C1` [Compound 2.55, (E)-(4-(4-((2-(aminomethyl)-3-fluoroallyl)oxy)phenyl)bicyclo [2.2.2]octan-1-yl)(3-(methoxymethyl)azetidin-1-yl)methanone], the IC50 is not above 10 nM. Take `CC(=O)N1CCN(C(=O)C23CCC(c4ccc(OC/C(=C/F)CN)cc4)(CC2)CC3)CC1` [Compound 2.31, (E)-1-(4-(4-(4-((2-(aminomethyl)-3-fluoroallyl)oxy)phenyl)bicyclo [2.2.2]octane-1-carbonyl)piperazin-1-yl)ethanone]: the 50% inhibitory concentration (IC50) is not above 10 nM. As for `COc1nccc(CNC(=O)C23CCC(c4ccc(OC/C(=C/F)CN)cc4)(CC2)CC3)n1` [Compound 2.140, (E)-4-(4-((2-(aminomethyl)-3-fluoroallyl)oxy)phenyl)-N-((2-methoxypyrimidin-4-yl)methyl)bicyclo[2.2.2]octane-1-carboxamide], the IC50 was not above 10 nM. As to `CO[C@H]1C[C@@H](NC(=O)C23CC(c4ccc(OC/C(=C/F)CN)cc4)(C2)C3)C1` [Compound 3.05, 3-(4-(((E)-2-(aminomethyl)-3-fluoroallyl)oxy)phenyl)-N-((1r,3r)-3-methoxycyclobutyl)bicyclo [1.1.1]pentane-1-carboxamide], the IC50 is not above 10 nM.

Take `COCCCNC(=O)C12CCC(c3ccc(OC/C(=C/F)CN)cc3)(CC1)CC2` [Compound 2.83, (E)-4-(4-((2-(aminomethyl)-3-fluoroallyl)oxy)phenyl)-N-(3-methoxypropyl)bicyclo[2.2.2] octane-1-carboxamide]: the IC50 was not above 10 nM. Under `Cc1nnc(C23CCC(c4ccc(OC/C(=C/F)CN)cc4)(CC2)CC3)o1` [Compound 11, (2E)-3-fluoro-2-({4-[4-(5-methyl(1,3,4-oxadiazol-2-yl))bicyclo[2.2.2]octyl]phenoxy}methyl)prop-2-enylamine] stands not above 10 nM; under `NC/C(=C\F)COc1ccc(C23CCC(C(=O)NCCCO)(CC2)CC3)cc1` [Compound 2.61, (E)-4-(4-((2-(aminomethyl)-3-fluoroallyl)oxy)phenyl)-N-(3-hydroxypropyl)bicyclo[2.2.2] octane-1-carboxamide], not above 10 nM.

As for `NC/C(=C\F)COc1ccc(C23CCC(C(=O)NCC(F)(F)F)(CC2)CC3)cc1` [Compound 2.109, (E)-4-(4-((2-(aminomethyl)-3-fluoroallyl)oxy)phenyl)-N-(2,2,2-trifluoroethyl)bicyclo [2.2.2]octane-1-carboxamide], the IC50 is not above 10 nM. For the compound `NC/C(=C\F)COc1ccc(C23CCC(C(=O)NCC4(O)CCCCC4)(CC2)CC3)cc1` [Compound 2.101, (E)-4-(4-((2-(aminomethyl)-3-fluoroallyl)oxy)phenyl)-N-((1-hydroxycyclohexyl)methyl) bicyclo[2.2.2]octane-1-carboxamide], the IC50 is not above 10 nM.

As for `CC1(C)CCC(NC(=O)C23CCC(c4ccc(OC/C(=C/F)CN)cc4)(CC2)CC3)CO1` (stereo not drawn) [Compound 2.153, (E)-4-(4-((2-(aminomethyl)-3-fluoroallyl)oxy)phenyl)-N-(6,6-dimethyltetrahydro-2H-pyran-3-yl)bicyclo[2.2.2]octane-1-carboxamide], the IC50 is not above 10 nM. Under `NC/C(=C\F)COc1ccc(C23CCC(C(=O)N4CC(O)(C5CC5)C4)(CC2)CC3)cc1` [Compound 2.99, (E)-(4-(4-((2-(aminomethyl)-3-fluoroallyl)oxy)phenyl)bicyclo [2.2.2]octan-1-yl)(3-cyclopropyl-3-hydroxyazetidin-1-yl)methanone] stands not above 10 nM; under `NC/C(=C\F)COc1ccc(C23CCC(C(=O)NCCC(=O)N4CCOCC4)(CC2)CC3)cc1` [Compound 2.68, (E)-4-(4-((2-(aminomethyl)-3-fluoroallyl)oxy)phenyl)-N-(3-morpholino-3-oxopropyl)bicyclo[2.2.2]octane-1-carboxamide], not above 10 nM.

In the case of `COC(C)(C)CNC(=O)C12CCC(c3ccc(OC/C(=C/F)CN)cc3)(CC1)CC2` [Compound 2.97, (E)-4-(4-((2-(aminomethyl)-3-fluoroallyl)oxy)phenyl)-N-(2-methoxy-2-methylpropyl)bicyclo[2.2.2] octane-1-carboxamide], the IC50 was not above 10 nM.

Consider `CNC(=O)C12CCCC(c3ccc(OC/C(=C/F)CN)cc3)(CC1)C2` (stereo not drawn) [Compound 5, 5-(4-(((E)-2-(Aminomethyl)-3-fluoroallyl)oxy)phenyl)-N-methylbicyclo[3.2.1]octane-1-carboxamide Hydrochloride], for which the IC50 is not above 10 nM.
